Assay results as given in publication PMC6498537, “Biomimetic synthesis of the natural product salviadione and its hybrids: discovery of tissue-specific anti-inflammatory agents for acute lung injury” (Chemical Science, 2019).
Like-named read-outs stand apart in the source and are kept apart here. Blank lines part the entries; values can stand above or below the compound they belong to.

Experiments:
[1] = design: method as in PMID 17504222; settings: literature value for 2; ref 8a; cited from earlier work
[2] = Liver microsomal stability assay, rat; format: in vitro ADME; settings: rat liver microsomes; for half-life at 0.1 μM: pH 7.4
Description: (§1) Liver Microsomal Stability Assay. Microsomes in 0.1 M TRIS buffer pH 7.4 (final concentration 0.33 mg/mL), co-factor MgCl2 (final concentration 5 mM) and tested compound (final concentration 0.1 μM, co-solvent (0.01% DMSO) and 0.005% Bovin serum albumin) were incubated at 37°C for 10min. The reaction was started by the addition of NADPH (final concentration 1 mM). Aliquots were sampled at 0, 7, 17, 30 and 60 min, respectively, and methanol (cold in 4 °C) was added to terminate the […]
(§2) reaction. […]

[3] = Liver microsomal stability assay, human; format: in vitro ADME; settings: for Clint in vitro / half-life at 0.1 μM: human liver microsomes; for half-life at 0.1 μM: pH 7.4
Description: as §1, §2

[4] = biological target: T1, hERG potassium ion channel (Homo sapiens, UniProt Q12809); assay: hERG cardiotoxicity assay (manual patch clamp, HEK293); format: cell-based; settings: whole-cell patch clamp, read-out: hERG inhibition IC50
T1 construct: expressed in transfected cells; host or cells: HEK293 (human embryonic kidney cells stably expressing hERG channels)
T1 sequence (Q12809 whole entry): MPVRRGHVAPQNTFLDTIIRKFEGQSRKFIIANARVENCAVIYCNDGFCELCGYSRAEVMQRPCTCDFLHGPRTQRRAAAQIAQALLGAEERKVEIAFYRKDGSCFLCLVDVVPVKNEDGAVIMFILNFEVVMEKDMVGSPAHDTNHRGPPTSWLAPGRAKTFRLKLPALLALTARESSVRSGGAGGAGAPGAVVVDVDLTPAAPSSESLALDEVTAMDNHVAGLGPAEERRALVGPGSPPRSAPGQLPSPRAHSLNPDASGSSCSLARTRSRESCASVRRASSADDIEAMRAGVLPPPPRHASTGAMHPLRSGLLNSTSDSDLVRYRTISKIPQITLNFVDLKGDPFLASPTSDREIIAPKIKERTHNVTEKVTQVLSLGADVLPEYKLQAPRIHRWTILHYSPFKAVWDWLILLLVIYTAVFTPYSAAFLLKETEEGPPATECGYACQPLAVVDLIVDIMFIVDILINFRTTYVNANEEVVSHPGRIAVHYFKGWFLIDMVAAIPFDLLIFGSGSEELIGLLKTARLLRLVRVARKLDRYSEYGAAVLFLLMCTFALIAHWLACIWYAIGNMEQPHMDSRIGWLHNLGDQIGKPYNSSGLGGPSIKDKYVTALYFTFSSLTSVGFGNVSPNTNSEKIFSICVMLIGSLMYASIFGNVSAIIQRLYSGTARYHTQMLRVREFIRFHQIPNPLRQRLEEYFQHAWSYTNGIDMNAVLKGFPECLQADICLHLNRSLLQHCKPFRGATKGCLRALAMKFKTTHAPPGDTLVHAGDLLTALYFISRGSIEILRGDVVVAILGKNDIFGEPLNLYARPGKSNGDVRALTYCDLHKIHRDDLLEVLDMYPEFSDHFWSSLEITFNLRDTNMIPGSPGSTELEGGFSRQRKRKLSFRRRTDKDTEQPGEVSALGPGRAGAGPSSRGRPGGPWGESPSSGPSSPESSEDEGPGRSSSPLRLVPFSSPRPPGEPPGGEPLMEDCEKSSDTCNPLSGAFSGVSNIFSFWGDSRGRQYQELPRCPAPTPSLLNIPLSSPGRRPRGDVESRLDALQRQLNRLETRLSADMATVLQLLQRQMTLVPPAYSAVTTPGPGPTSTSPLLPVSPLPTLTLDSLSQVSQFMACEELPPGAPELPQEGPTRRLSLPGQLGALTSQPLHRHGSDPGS
Description: hERG Cardiotoxicity Assay. The human embryonic kidney cells stably expressing hERG channels were used in the study.
vehicle control were delivered separately to the clamped cells by a 6-channel perfusion system. The hERG channel tail currents were recorded by clampex 10.3. The data were collected and analyzed by clampfit 10.3. The peak of the tail currents in the presence of positive control and test article were normalized with the currents recorded in the presence of corresponding vehicle control as 100 %, respectively. The IC50 value was calculated using GraphPad Prism 5.00.

[5] = Tissue distribution after single intravenous administration; format: in vivo, SD rats; settings: iv 2 mg kg^–1, rat
Description: Tissue Distribution Assay. Compound 15a (2 mg/kg) dissolved in PEG300/EtOH/NaCl(40/10/50, v/v/v)to a concentration of 0.4 mg/mL, and was […]
given to SD rats (Male, 180–220 g, three groups with three rats in each group) by intravenous administration. Blood samples and the important tissues including heart, liver, lung, kidney, and brain were collected at 0.25, 2 and 12 h after administration (anticoagulant: EDTA-Na2). For plasma samples, 250 μL of solvent of methanol: acetonitrile (1:1, v/v) with internal standard was added to 50 μL of plasma and vortexed thoroughly. For tissue samples, three times the weight of volume of PBS were added, then homogenized. The homogenates were precipitated by five times of methanol: acetonitrile (1:1, v/v) with internal standard. They were centrifuged for 5 min, and then 20 μL of the supernatant was mixed with 20 μL of water for analysis. Samples were analyzed by AB6500 triple quadrupole mass spectrometer (AB Sciex, USA). The ACQUITY UPLC BEH C18 (1.7 μm, 2.0 mm × 50 mm, Waters, USA) was used for the analysis. Gradient elution was applied consisting of ultrapure water containing 0.1% formic acid and acetonitrile containing 0.1% formic acid. […]

[6] = system: LPS-induced IL-6 release; assay: LPS-induced IL-6 release in mouse primary peritoneal macrophages (ELISA); format: cell-based; settings: Peritoneal macrophage, LPS (0.5 μg/mL) 24 h, 30 min pretreatment, read-out: IC50 against the release of IL-6
Description: (§3) Figure S3. Inhibitory activity of the benzo[def]carbazole-3,5-diones against LPS-induced TNF-α and IL-6 secretion in mouse peritoneal macrophages. Macrophages were plated at a density of 5 × 10^5/plate for overnight at 37 °C and in 5% CO2. Cells were pretreated with 5 or tanshinone analogues (10 μM) for 30 min, then treated with LPS (0.5 μg/mL) for 24 h. L6H21 (19) was used as a positive control. TNF-α and IL-6 levels in the culture medium were measured by ELISA and were normalized by the total protein level. The results were presented as the percent of LPS control. Each bar represents the mean ± SD of three independent experiments.
(§4) Statistical significance relative to the LPS group is indicated: ∗ , p < 0.05; ∗∗, p < 0.01.
(§5) (1 picture or pasted object on this page, not shown here)
(§6) Figure S5. […]
(§7) 30 min, then treated with LPS (0.5 μg/mL) for 24 h. IL-6 and TNF-α levels in the culture media were measured by ELISA and were normalized by the total protein. The results were expressed as the percent of LPS. […]
(§8) Determination of TNF-α and IL-6. The levels of TNF-α and IL-6 in medium, bronchoalveolar lavage fluid (BALF) and serum were determined with an ELISA kit (eBioScience, San Diego, CA) according to the manufacturer’s instructions. The total amount of the inflammatory factor in the medium was normalized to the total protein quantity of the viable cell pellets. […]

[7] = Preliminary pharmacokinetic parameters (p.o. and i.v.); format: in vivo; settings: for MRT inf: read-out: MRTINF_obs
Description: Table S4. Preliminary Pharmacokinetic Parameters for Compound 15a a-c
T1/2 Tma Cmax AUC CL_obs MRTINF_obs Vss_obs F […]
aValues are the average of three runs. Vehicle: DMSO, Tween 80, normal saline. CL, clearance; Vss, volume of distribution; T1/2, half-life; Cmax, maximum concentration; Tmax, time of maximum concentration; MRT, mean residence time; AUC, area under the plasma concentration time curve; F, oral bioavailability. bDose: p.o. at 3.0 mg/kg; cDose: i.v. at 1.0

[8] = system: LPS-induced TNF-α release; assay: LPS-induced TNF-α release in mouse primary peritoneal macrophages (ELISA); format: cell-based; settings: Peritoneal macrophage, LPS (0.5 μg/mL) 24 h, 30 min pretreatment, read-out: IC50 against the release of TNF-α
Description: as §3, §4, §5, §6, §7, §8

[9] = system: LPS-induced ALI in mice; assay: LPS-induced acute lung injury (ALI) in mice; format: in vivo
Description: LPS-Induced Acute Lung Injury (ALI) in B6 Mice. Compound 15a was first
dissolved with macrogol 15 hydroxystearate (a nonionic solubilizer for injection from
BASF) with or without medium chain triglycerides (MCT, from BASF) in a water bath
at 37 °C. The concentration of compound was 2 mg/mL. The concentration of
solubilizer was 5−10%, and that for MCT was 0.5−2% in final solution. For the vehicle,
the mixture of solubilizer and MCT was prepared at 10% and 2%, respectively. Mice,
weighing 20−24 g, were randomized to the following three groups of seven animals
each: CON group, LPS group, 15a + LPS group. 15a + LPS group mice were pretreated
with compounds in a water solution (5 mg/kg) by i.v injection 15 min before 5 mg/kg
of LPS was administered by intratracheal instillation. The animals in CON group
received a similar volume of vehicle. After 6 hours, mice were euthanized to collect the
BALF, serum and lung tissue samples. […]
Determination Total Protein Concentration and Number of Neutrophils in BALF.
Bronchoalveolar lavage fluid (BALF) cells and supernatant were separated by
centrifugal separation at 4 °C and 3,000 rpm for 10 minutes. Total protein concentration
in supernatant of BALF was measured using a coomassie blue staining assay kit
according to the manufacturer's instructions. The cells of BALF were resuspended in
40 μL of physiological saline and used for neutrophil cell counts by Wright–Giemsa
Serum Analysis. Blood was collected from mice at sacrifice and was centrifuged at 4
°C and 12,000 rpm for 10 minutes. […]
Real-Time Quantitative PCR. Lung tissues were homogenized in TRIZOL kit
(Invitrogen, Carlsbad, CA) for extraction of RNA according to each manufacturer’s
protocol. Both reverse transcription and quantitative PCR were carried out using a two-
step M-MLV Platinum SYBR Green qPCR SuperMix-UDG kit (Invitrogen, Carlsbad,
CA). Eppendorf Mastercycler ep realplex detection system (Eppendorf, Hamburg,
Germany) was used for RT-qPCR analysis. The primers of genes including TNF-α,
IL-6, IL-1β, ICAM-1, and β-actin were synthesized by Invitrogen. The primer
sequences of mouse genes used are shown as follows:
TNF-α sense primer, 5′-[…]-3
TNF-α antisense primer, 5′-[…]-3′;
IL-6 sense primer, 5′-[…]-3′;
IL-6 antisense primer, 5′-[…]-3′;
IL-1β sense primer, 5′-[…]-3′;
IL-1β antisense primer, 5′-[…]-3′;
ICAM-1 sense primer, 5′-[…]-3′;
ICAM-1 antisense primer, 5′-[…]-3′;
β-actin sense primer, 5′-[…]-3′;
β-actin antisense primer, 5′-[…]-3′.
Statistical Analysis. The results are presented as the mean ±SD. The Student’s t test
was employed to analyze the differences between sets of data. Statistics were performed
using GraphPad Pro (GraphPad, San Diego, CA). P values less than 0.05 (p < 0.05)

[10] = pretreatment 5 mg kg^–1 i.v., LPS, 6 h

half-life at 0.1 μM [2]: 3.15 min
Clint in vitro [2]: 666.40 mL min^–1 g^–1 protein
Clint in vitro [3]: 277.17 mL min^–1 g^–1 protein
half-life at 0.1 μM [3]: 7.58 min
Structure (SMILES): Cc1coc2c1C(=O)C(=O)c1c-2ccc2c1CCCC2(C)C [Compound 2, tanshinone IIA, reference compound]
F (oral bioavailability) [1]: < 3.5%
T1/2 [1]: 20.4 min

Concentration in brain ([5]; 0.25 h): 224 ng g^–1
Concentration in heart ([5]; 0.25 h): 992 ng g^–1
Concentration in heart plasma ([5]; 0.25 h): 144 ng mL^–1
Concentration in kidney ([5]; 0.25 h): 806 ng g^–1
Concentration in liver ([5]; 0.25 h): 2557 ng g^–1
Concentration in lung ([5]; 0.25 h): 3320 ng g^–1
Concentration in portal vein plasma ([5]; 0.25 h): 142 ng mL^–1
Concentration in brain ([5]; 2 h): 93.9 ng g^–1
Concentration in heart ([5]; 2 h): 223 ng g^–1
Concentration in heart plasma ([5]; 2 h): 31.2 ng mL^–1
Concentration in kidney ([5]; 2 h): 187 ng g^–1
Concentration in liver ([5]; 2 h): 518 ng g^–1
Concentration in lung ([5]; 2 h): 847 ng g^–1
Concentration in portal vein plasma ([5]; 2 h): 33.1 ng mL^–1
Concentration in brain ([5]; 12 h): 3.11 ng g^–1
Concentration in heart ([5]; 12 h): 19.8 ng g^–1
Concentration in heart plasma ([5]; 12 h): 1.90 ng mL^–1
Concentration in kidney ([5]; 12 h): 33.0 ng g^–1
Concentration in liver ([5]; 12 h): 57.3 ng g^–1
Concentration in lung ([5]; 12 h): 633 ng g^–1
Concentration in portal vein plasma ([5]; 12 h): 2.04 ng mL^–1
lung drug concentration relative to other tissues ([5]; 12 h): 11 to 300 times
half-life at 0.1 μM [2]: 23.5 min
Clint in vitro [2]: 89.44 mL min^–1 g^–1 protein
IC50 [6]: 1.62 µM
Vss_obs ([7]; iv, 1.0 mg/kg): 5.98 L/kg
AUC ([7]; plasma, iv, 1.0 mg/kg): 485 ng·h/mL
half-life ([7]; plasma, iv, 1.0 mg/kg): 300 min
clearance ([7]; plasma, iv, 1.0 mg/kg, read-out: CL_obs): 34.9 mL/min/kg
MRT inf ([7]; plasma, iv, 1.0 mg/kg): 179 min
AUC ([7]; plasma, po, 3.0 mg/kg): 426 ng·h/mL
Cmax ([7]; plasma, po, 3.0 mg/kg): 81.2 ng/mL
MRT inf ([7]; plasma, po, 3.0 mg/kg): 320 min
F (oral bioavailability) ([7]; po 3.0 mg/kg vs iv 1.0 mg/kg): 30.2%
T1/2 ([7]; po, 3.0 mg/kg): 243 min
Tma ([7]; po, 3.0 mg/kg): 1.83 h
IC50 [8]: 6.37 µM
enhancement of metabolic stability compared to 2 ([3]; human and rat microsomes): 4- to 7 fold
Clint in vitro [3]: 61.62 mL min^–1 g^–1 protein
half-life at 0.1 μM [3]: 34.1 min
Structure (SMILES): Cc1coc2c1C(=O)c1c3c-2ccc2c3c(n1Cc1ccccc1)C(=O)CC2(C)C [Compound 15a]
IC50 [4]: > 40 µM
mRNA expression of TNF-α, IL-6, IL-1β and ICAM-1 in lung tissue (RT-qPCR) ([9]; LPS-treated lung tissues, 5 mg/kg i.v.): markedly suppressed
lung wet/dry weight ratio (lung edema) ([9]; pretreatment 5 mg kg^–1 i.v., 15 min before LPS 5 mg/kg intratracheal, 6 h): effectively reduced
lung macrophage infiltration (CD68 immunostaining) ([9]; pretreatment 5 mg kg^–1 i.v., LPS): significantly attenuated
histopathological features of lung (H&E) [9, 10]: very little histopathological changes
level of IL-6 in BALF [9, 10]: distinctly suppressed
level of IL-6 in serum [9, 10]: no significant inhibition
level of TNF-α in BALF [9, 10]: distinctly suppressed
level of TNF-α in serum [9, 10]: no significant inhibition
number of neutrophils in BALF [9, 10]: significantly decreased
protein concentration in BALF [9, 10]: significantly inhibited
